What was measured:
Type in all cases: cell-based
PPARγ = target: T1, PPARγ (Mus musculus, UniProt P37238); assay: GAL4/UAS-luciferase reporter assay in transfected HEK293 cells, dose-response (partial agonist)
T1 construct: gene Pparg; GAL4-mPPARγ
T1 sequence (P37238 1-505): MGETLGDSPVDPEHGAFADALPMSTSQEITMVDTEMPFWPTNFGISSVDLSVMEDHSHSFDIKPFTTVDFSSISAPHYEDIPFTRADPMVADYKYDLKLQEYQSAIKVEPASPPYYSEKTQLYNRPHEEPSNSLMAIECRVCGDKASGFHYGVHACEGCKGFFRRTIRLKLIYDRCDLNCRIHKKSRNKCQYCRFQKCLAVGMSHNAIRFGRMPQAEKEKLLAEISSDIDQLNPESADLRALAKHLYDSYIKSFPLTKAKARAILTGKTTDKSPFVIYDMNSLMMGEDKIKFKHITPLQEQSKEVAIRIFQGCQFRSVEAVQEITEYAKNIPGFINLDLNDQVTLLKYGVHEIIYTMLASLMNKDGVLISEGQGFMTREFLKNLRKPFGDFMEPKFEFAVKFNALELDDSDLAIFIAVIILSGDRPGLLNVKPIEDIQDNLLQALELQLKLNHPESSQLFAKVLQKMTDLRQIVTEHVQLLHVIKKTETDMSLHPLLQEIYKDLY

PPARα [1] = target: T2, PPARα (Mus musculus, UniProt P23204); assay: as above
T2 construct: gene Ppara; GAL4-mPPARα
T2 sequence (P23204 1-468): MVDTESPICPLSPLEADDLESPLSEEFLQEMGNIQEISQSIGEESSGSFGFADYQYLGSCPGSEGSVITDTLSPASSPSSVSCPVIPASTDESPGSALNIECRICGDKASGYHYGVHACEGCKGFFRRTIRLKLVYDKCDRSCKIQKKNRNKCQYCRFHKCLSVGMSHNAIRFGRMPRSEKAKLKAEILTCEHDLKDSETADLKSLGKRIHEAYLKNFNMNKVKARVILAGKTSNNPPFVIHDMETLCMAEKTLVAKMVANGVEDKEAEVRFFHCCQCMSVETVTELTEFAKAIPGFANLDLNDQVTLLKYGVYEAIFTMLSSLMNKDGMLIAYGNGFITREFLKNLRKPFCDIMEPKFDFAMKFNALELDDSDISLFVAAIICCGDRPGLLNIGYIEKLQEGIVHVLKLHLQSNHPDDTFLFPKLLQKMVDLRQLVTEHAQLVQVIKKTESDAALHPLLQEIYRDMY

PPARδ = target: T3, PPARδ (Mus musculus, UniProt P35396); assay: as above
T3 construct: gene Ppard; GAL4-mPPARδ
T3 sequence (P35396 210-440 limits assumed): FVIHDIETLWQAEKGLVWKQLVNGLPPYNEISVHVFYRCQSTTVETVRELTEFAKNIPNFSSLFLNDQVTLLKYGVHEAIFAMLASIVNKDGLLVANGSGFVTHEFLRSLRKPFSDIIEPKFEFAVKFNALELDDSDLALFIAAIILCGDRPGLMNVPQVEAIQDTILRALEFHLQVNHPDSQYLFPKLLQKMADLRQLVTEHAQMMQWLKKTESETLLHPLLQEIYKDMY

PPARα [2] = target: T2, PPARα; assay: GAL4/UAS-luciferase reporter assay in transfected HEK293 cells, positive control agonist

| Compound | EC50 (PPARγ) [nM] | EC50 (PPARα [1]) [nM] | EC50 (PPARδ) [nM] | GAL4/UAS-luciferase reporter assay in transfected HEK293 cells, positive control (PPARα [2]) |
| --- | --- | --- | --- | --- |
| CCCCCCCCCCCCCCCc1cccc(OC(C)(C)C(=O)O)c1 [LDT409] | 100 | 100 | 1000 |  |
| Cc1cccc(Nc2cc(Cl)nc(SCC(=O)O)n2)c1C [WY14643] |  |  |  | full dose–response curve comparing LDT409 against positive controls for each mouse PPAR (WY, PPARα agonist; |
